We go through 10 molecules from ChEMBL document CHEMBL1201862, “PubChem BioAssay data set” (2004).

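Cells were grown in 96-well plates and exposed to each compound for 48 hours at five concentrations; endpoints were interpolated linearly between bracketing concentrations, or set to the highest concentration if not reached. GI50 = concentration required for 50% inhibition of growth.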 Active and inactive are the calls of the source. No stated cut-off is given here; in the data, active = GI50 up to about 1.1 µM and inactive = higher.

Test systems include ACHN; CCRF-CEM; HCT-116; HCT-15; HL-60; HOP-18; HOP-62; K562; LXFL 529; NCI-H23; OVCAR-8; SF-295; SF-539; SK-MEL-28; SN12C; UO-31.
Assay in all cases: NCI-60 cell line screen, 48 h

Turning to `O=c1cc(-c2ccccc2)oc2cc(OCCCOc3ccc4c(=O)cc(-c5ccccc5)oc4c3)ccc12`, the GI50 with ACHN was > 100 µM (inactive); in the assay on CCRF-CEM, > 100 µM (inactive); with HCT-116, > 100 µM (inactive); in the assay on HCT-15, greater than 100 µM; in the assay on HL-60, > 100 µM (inactive); with HOP-18 it was > 100 µM (inactive). Also, the GI50 with HOP-62, in the assay with K562, in the assay on LXFL 529, in the assay with NCI-H23, with OVCAR-8 and in the assay on SF-295 was > 100 µM (inactive) in each case. Moreover, the GI50 with SF-539, in the assay on SK-MEL-28 and in the assay with SN12C was > 100 µM (inactive) in each case.
For `O=C1OC(=O)C2C3C=CC(C12)C1C2C=CC2C31` (stereo not given), the GI50 with ACHN, in the assay on CCRF-CEM, in the assay on HCT-116, in the assay with HL-60, with HOP-18 and in the assay with HOP-62 was > 100 µM (inactive) in each case. Also, the GI50 in the assay with K562, in the assay with LXFL 529, in the assay on NCI-H23, with OVCAR-8, in the assay with SF-295 and in the assay on SF-539 was > 100 µM (inactive) each time. In addition, the GI50 in the assay on SK-MEL-28 and in the assay on SN12C was > 100 µM (inactive) in each case.
As for `C=CCCC(OCOCCOC)c1cc(C)c(O[Si](C)(C)C(C)(C)C)c(C)c1` (stereo not given), the GI50 with ACHN was 13.2 µM (inactive); in the assay with CCRF-CEM, 13.3 µM (inactive); in the assay on HCT-15, 13.2 µM; with HL-60, 3.28 µM (inactive); in the assay with HOP-18, 28.6 µM (inactive); with HOP-62, 18.7 µM (inactive). The GI50 in the assay on K562 was 8.05 µM (inactive); with LXFL 529, 22.8 µM (inactive); in the assay on NCI-H23, 14.5 µM (inactive); with OVCAR-8, 19.3 µM (inactive); with SF-295, 17.3 µM (inactive); with SF-539, 18.4 µM (inactive). Besides, the GI50 in the assay with SK-MEL-28 was 19.5 µM (inactive); with SN12C, 15.6 µM (inactive); in the assay with UO-31, 11.7 µM (inactive).
In the case of `CCCC/C(C)=N/NC(N)=S`, the GI50 with ACHN was > 100 µM (inactive); in the assay with CCRF-CEM it was > 100 µM (inactive); in the assay on HCT-116 it was > 100 µM (inactive); with HCT-15, greater than 100 µM; with HL-60 it was 14.5 µM (inactive); in the assay on HOP-18 it was > 100 µM (inactive). Moreover, the GI50 in the assay on HOP-62, in the assay on K562, in the assay on LXFL 529, with NCI-H23, with OVCAR-8 and in the assay on SF-295 was > 100 µM (inactive) throughout. The GI50 in the assay on SF-539, with SK-MEL-28, in the assay on SN12C and in the assay with UO-31 was > 100 µM (inactive) throughout.
`BrC/C=C/C[P+](c1ccccc1)(c1ccccc1)c1ccccc1`: the GI50 in the assay with ACHN was 12.2 µM (inactive); in the assay on CCRF-CEM it was > 100 µM (inactive); in the assay with HCT-116, 3.97 µM (inactive); in the assay on HL-60, 2.54 µM (inactive); with HOP-18 it was 67 µM (inactive); with HOP-62, 19.6 µM (inactive). Moreover, the GI50 with K562 is 2.43 µM (inactive); in the assay on LXFL 529, 1.7 µM (inactive); in the assay on NCI-H23, 32.3 µM (inactive); with OVCAR-8, 3.91 µM (inactive); in the assay with SF-295 it was 13.1 µM (inactive); in the assay with SF-539, 1.52 µM (inactive). Moreover, the figures for the GI50 with SK-MEL-28, in the assay with SN12C and with UO-31 were 33.3 µM (inactive), 19.5 µM (inactive) and 34.2 µM (inactive), respectively.
For `CCC/C(=N\NC(=O)c1cc2ccccc2cc1O)C(CC)C(=O)CCC(=O)N(Cc1ccccc1)Cc1ccccc1` (stereo not given), the GI50 with ACHN is 33.5 µM (inactive); in the assay on CCRF-CEM, 7.62 µM (inactive); in the assay with HCT-116, 41 µM (inactive); in the assay with HCT-15 it was 38.4 µM; with HL-60, 13 µM (inactive); in the assay on HOP-18, 11 µM (inactive). In addition, the GI50 with HOP-62 was 81.1 µM (inactive); in the assay with K562, 26.2 µM (inactive); in the assay on LXFL 529, 29.6 µM (inactive); in the assay on NCI-H23, 76.2 µM (inactive); in the assay on OVCAR-8, 49.9 µM (inactive); in the assay on SF-295, 33.9 µM (inactive). Further, the GI50 with SF-539 is 48.1 µM (inactive); in the assay with SK-MEL-28, > 100 µM (inactive); in the assay with SN12C, 63.2 µM (inactive); in the assay with UO-31, 54 µM (inactive).
For `O=c1[nH]cnc2[nH]nnc12`, the GI50 with ACHN was 12 µM (inactive); in the assay on CCRF-CEM it was 0.4 µM (active); with HCT-116, 2.1 µM (inactive); in the assay on HCT-15, 11.6 µM; with HL-60 it was 0.323 µM (active); with HOP-18, 2.33 µM (inactive). Besides, the GI50 with HOP-62 was 1.99 µM (inactive); with K562 it was 0.593 µM (active); in the assay on LXFL 529, 84.7 µM (inactive); with NCI-H23, 35.6 µM (inactive); with OVCAR-8, 0.723 µM (active); in the assay with SF-295 it was 8.65 µM (inactive). For the same molecule, the GI50 in the assay on SF-539 was 3.85 µM (inactive); in the assay with SK-MEL-28, 4.46 µM (inactive); in the assay on SN12C, 1.93 µM (inactive); in the assay on UO-31, 2.73 µM (inactive).
As to `CC1(C)OC(=O)C(c2ccsc2)C(=O)O1`, the GI50 in the assay with ACHN was > 100 µM (inactive); in the assay with CCRF-CEM, > 100 µM (inactive); in the assay with HCT-116 it was > 100 µM (inactive); in the assay on HCT-15, greater than 100 µM; in the assay with HL-60, > 100 µM (inactive); with HOP-18, > 100 µM (inactive). Further, the GI50 in the assay on HOP-62, with K562, in the assay on LXFL 529, in the assay on NCI-H23, with OVCAR-8 and in the assay on SF-295 was > 100 µM (inactive) throughout. Moreover, the GI50 in the assay with SF-539, in the assay with SK-MEL-28, in the assay on SN12C and in the assay with UO-31 was > 100 µM (inactive) each time.
Regarding `O=C(CC(=O)c1ccc([N+](=O)[O-])cc1)C(=O)Nc1nccs1`, the GI50 is > 100 µM (inactive) with ACHN; > 100 µM (inactive) in the assay on CCRF-CEM; greater than 100 µM with HCT-15; > 100 µM (inactive) in the assay with HL-60; > 100 µM (inactive) in the assay on HOP-18; > 100 µM (inactive) in the assay on HOP-62. The GI50 with K562 was > 100 µM (inactive); in the assay with LXFL 529, > 100 µM (inactive); in the assay with NCI-H23, > 100 µM (inactive); in the assay with SF-539, > 100 µM (inactive); with SK-MEL-28, > 81.5 µM (inactive); with SN12C it was > 100 µM (inactive). Besides, the GI50 in the assay on UO-31 was > 100 µM (inactive).
Turning to `O=S1(=O)OCCOS(=O)(=O)C1Cl`, the GI50 with CCRF-CEM, in the assay on HCT-116, in the assay on HL-60, in the assay on HOP-18, with HOP-62 and in the assay with K562 was > 100 µM (inactive) each time. Also, the GI50 with LXFL 529, in the assay with NCI-H23, in the assay with OVCAR-8, in the assay on SF-295, in the assay on SF-539 and in the assay on SK-MEL-28 was > 100 µM (inactive) throughout. For the same molecule, the GI50 in the assay on SN12C and with UO-31 was > 100 µM (inactive) in each case.
